Laboratory results taken from PMC8529873, “Carbohydrate-Based NK1R Antagonists with Broad-Spectrum Anticancer Activity” (Journal of Medicinal Chemistry, 2021).
Read-outs that look alike come from different tables or passages of the source. Where no end group is shown, it is not given here.

Legend:
A549 cells [1] = test: Cell proliferation after SP, Resazurin assay, 48 h; format: cell-based, human; conditions: SP 2.5 - 200 nM
Protocol: Competition Experiments of Cytotoxic effect of in presence of SP. 14α
First, we treated A549 cells with several concentrations of SP (2.5 - 200 nM) for 48 h and we evaluated cell proliferation with the Resazurin assay. Although it has been reported that A549 […]
of SP. The highest SP concentration tested (200 nM) was added 1 h before 32 µM of 14α or Cisplatin. After a 48 h treatment period, the cell viability was determined with the Resazurin […]
Figure S-4. Evaluation of cytotoxic activity of 14α derivative and Cisplatin on A549 lung cancer cells and HaCaT normal cells in presence of SP. Results are representative of at least three independent experiments. Values are expressed in mean with SEM.
1 O'Connor, T.M.; O'Connell, J.; O'Brien, D.I.; Bennett, M.W.; Goode, T.; Burke, L.; Bredin, C.P.; Shanahan,
(1 picture or pasted object on this page, not shown here)

[2] = test system: A549 human lung cancer cells; test: MTT cytotoxicity assay, 48 h, A549 cells; format: cell-based; conditions: for IC50: read-out: IC50 (mean ± SEM) A549 (cancer)
From the text: (§1) First, we evaluated the cytotoxicity of our carbohydrate derivatives against MRC-5 human nonmalignant lung cells and A549 human lung cancer cells using the 3-(4,5-dimethylthiazol-2-yl)-2,5-diphenyltetrazolium bromide (MTT) assay under the same experimental conditions.
(§2) Cell viability was estimated with the 3-(4,5-dimethylthiazol-2-yl)-2,5-diphenyltetrazolium bromide (MTT) assay or the resazurin assay. Both assays are redox-based colorimetric techniques based on the capability of viable cells to reduce the yellow product MTT or the blue reagent resazurin into a purple formazan dye or a pink-colored product, respectively. The number of live cells is directly proportional to the amount of the final product created. Exponentially growing cells were seeded in 96-well plates and were allowed to grow during 24 h. The cells were then treated with several concentrations of the tested compounds for 48–96 h (the incubation periods are specified in the figures and table legends) before measuring the cell viability using the MTT assay or the resazurin assay.
(§3) Then, 80 μL of 20% sodium dodecyl sulfate (SDS) in 20 mM HCl was added to dissolve the insoluble purple formazan product and plates were incubated for 15 h at 37 °C. The optical density (OD) of each well was measured at 540 nm with a multiwell plate spectrophotometer reader to quantify cell survivals.
In both assays, results were expressed as the percentage of cell viability in relation to untreated cells (controls). All data were averaged from two to five independent experiments and were expressed as the means ± standard error of the mean (SEM). For statistical analysis, the t-test (paired, two-tailed) was used. A p value >0.05 is not considered statistically significant and is not represented by any symbol, a p value <0.05 is considered statistically significant and is indicated with an asterisk (*), a p value <0.01 is indicated with a double asterisk (**), and a p value <0.001 is indicated with a triple asterisk (***).

[3] = test system: MRC-5 human nonmalignant lung cells; test: MTT cytotoxicity assay, 48 h, MRC-5 cells; format: cell-based
From the text: as §1
as §2, with “The cells were then treated with several concentrations of the tested compounds for 48–96 h (the incubation periods are specified in the figures and table legends) before measuring the cell viability using the MTT assay or the resazurin assay.” left out
as §3
In both assays, results were expressed as the percentage of cell viability in relation to untreated cells (controls). All data were averaged from two to five independent experiments and were expressed as the means ± standard error of the mean (SEM). […]

[4] = test system: KATO III (gastric cancer); test: Resazurin cell viability assay, 96 h, KATO III; format: cell-based, human
From the text: (§4) Cell viability was estimated with the resazurin assay. HaCaT human skin nonmalignant cells were used to study selectivity; these cells are derived from normal adult tissue and have a division rate similar to that of cancer cells.
as §2
(§5) The OD of each well was measured at 540 and 620 nm on a multiwell plate spectrophotometer reader.

[5] = test system: MDA-MB-231 (triple-negative breast cancer); test: Resazurin cell viability assay, 96 h, MDA-MB-231; format: cell-based, human; conditions: IC50 HaCaT / IC50 MDA-MB-231
From the text: as §4, §2, §5

[6] = test system: AN3Ca (endometrial adenocarcinoma); test: Resazurin cell viability assay, 96 h, AN3Ca; format: cell-based, human
From the text: as §4, §2, §5

T24 (bladder cancer) = test: Resazurin cell viability assay, 96 h, T24; format: cell-based, human
From the text: as §4, §2, §5

HT29 (colorectal cancer) = test: Resazurin cell viability assay, 96 h, HT29; format: cell-based, human
From the text: as §4, §2, §5

Sk-OV-3 (ovarian cancer) = test: Resazurin cell viability assay, 96 h, Sk-OV-3; format: cell-based, human; conditions: IC50 HaCaT / IC50 Sk-OV-3
From the text: as §4, §2, §5

MeWo (melanoma; BRAF WT) = test: Resazurin cell viability assay, 96 h, MeWo; format: cell-based, human
From the text: as §4, §2, §5

HepG2 (hepatocarcinoma) = test: Resazurin cell viability assay, 96 h, HepG2; format: cell-based, human
From the text: as §4, §2, §5

[7] = test system: Sk-Br-3 (HER2-positive breast cancer); test: Resazurin cell viability assay, 96 h, Sk-Br-3; format: cell-based, human
From the text: as §4, §2, §5

[8] = test system: HaCaT (human skin normal); test: Resazurin cell viability assay, 96 h, HaCaT; format: cell-based; conditions: read-out: IC50 (mean ± SEM) HaCaT
Protocol: Thirteen human cancer cells lines and one human nonmalignant cell line were treated with 14α for 96 h. We used longer exposure times because some of these cell lines have long cell cycles (24–48 h); this longer exposure time allows the cells to pass several cycles in the presence of 14α. Cell viability was estimated with the resazurin assay. HaCaT human skin nonmalignant cells were used to study selectivity; these cells are derived from normal adult tissue and have a division rate similar to that of cancer cells. One key limitation of most anticancer drugs is that, in addition to targeting cancer cells, they also target nonmalignant cells with similar division rates. […] These cell lines were at least 3 times more sensitive than the normal cell line to 14α treatment. HepG2 (hepatocarcinoma) and KATO III (gastric cancer) were at least 9-fold more vulnerable to 14α than HaCaT nonmalignant cells.
Cell viability was estimated with the 3-(4,5-dimethylthiazol-2-yl)-2,5-diphenyltetrazolium bromide (MTT) assay or the resazurin assay. […]
For the resazurin assay, after treatment, the medium was removed and 150 μL of resazurin solution (20 μg/mL in medium) was added to each well for 3–6 h. The OD of each well was measured at 540 and 620 nm on a multiwell plate spectrophotometer reader.

HNO97 (tongue cancer) = test: Resazurin cell viability assay, 96 h, HNO97; format: cell-based, human
From the text: as §4, §2, §5

[9] = test system: A64-CLS (submaxillary gland adenoma); test: Resazurin cell viability assay, 96 h, A64-CLS; format: cell-based, human
From the text: as §4, §2, §5

PC-3 (prostate cancer) = test: Resazurin cell viability assay, 96 h, PC-3; format: cell-based, human
From the text: as §4, §2, §5

GAMG (glioblastoma) = test: Resazurin cell viability assay, 96 h, GAMG; format: cell-based, human
From the text: as §4, §2, §5

A549 cancer cells = test: Cytotoxicity of 14α in presence or absence of antioxidants (ROS involvement); format: cell-based, human; conditions: A549, 48 h
Protocol: It is known that cancer cells have higher basal levels of reactive oxygen species (ROS) than normal cells, making them more sensitive to exogenous induction of ROS.[33] […] Therefore, we decided to study whether the generation of ROS was involved in the selective cytotoxic effect of 14α. A549 cancer cells were treated with 14α for 48 h in the presence or absence of three antioxidants: N-acetylcysteine (antioxidant activity through the glutathione system), catalase (hydrogen peroxide-degrading enzyme), and Mn(III) tetrakis(1-methyl-4-pyridyl)porphyrin pentachloride (MnTMPyP; superoxide anion scavenger).

A549 cells [10] = test: Glycolysis inhibition: glucose consumption and lactate production; format: cell-based, human; conditions: A549 cells exposed for 8 h
Protocol: Our next aim was to study the possible mechanisms involved in the selective anticancer activity of 14α. Because tumor cells rely on glycolysis for survival more than normal cells,[32] we evaluated if our compound behaved as a glycolysis inhibitor. Since glycolysis consumes glucose and produces lactate, we measured the concentrations of glucose and lactate in untreated A549 cells and in cells exposed for 8 h to 14α and to the known glycolysis inhibitor dichloroacetate.
Glycolysis inhibition was assessed by measuring concentrations of glucose ([…] of glycolysis) and lactate (final product of glycolysis) in control and treated cells. Briefly, 4 × 10^5 cells were seeded into 24-well plates. After 10 h, the medium of cells was renewed and drugs were added. Cells were exposed to the tested compounds for 8 h, and glucose and lactate concentrations were determined in cell supernatants using the Accutrend Plus analyzer together with Accutrend glucose strips and BM-Lactate strips (Roche Diagnostics). […] Results are expressed as a percentage of lactate production and percentage of glucose consumption in relation to untreated cells and are shown as the means ± SEM of two independent experiments.

With “substance P (RPKPQQFFGLM-NH2; ends and bridges not checked; also: 125I label, position not given here) [SP]” the “cell proliferation after addition of SP” value (A549 cells [1]) was “did not observe any increase in cell proliferation”.
`C[C@@H](O[C@H]1OCCN(Cc2n[nH]c(=O)[nH]2)[C@H]1c1ccc(F)cc1)c1cc(C(F)(F)F)cc(C(F)(F)F)c1` [Aprepitant] gave an IC50 ([2]; Homo sapiens, A549, MTT assay) of 18.3 ± 3.4 µM and an IC50 ([3]; Homo sapiens, MRC5, read-out: IC50 (mean ± SEM) MRC-5 (normal)) of 28.9 ± 6.8 µM.
For `N.N.[Cl][Pt][Cl]` [Cisplatin], the “selectivity index (vs HaCaT; mean ± SEM) KATO III” value ([4]; IC50 HaCaT / IC50 KATO III, Resazurin) was 1.2 ± 0.5, the IC50 ([4]; Resazurin assay, read-out: IC50 (mean ± SEM) KATO III) was 1.8 ± 0.2 µM and the “selectivity index (vs HaCaT; mean ± SEM) MDA-MB-231” value [5] was 0.3 ± 0.1. For the same compound, the “selectivity index (vs HaCaT; mean ± SEM) AN3Ca” value ([6]; IC50 HaCaT / IC50 AN3Ca, Resazurin) was 2.1 ± 1.2, the IC50 ([6]; Resazurin assay, read-out: IC50 (mean ± SEM) AN3Ca) was 1.8 ± 1.4 µM and the “selectivity index (vs HaCaT; mean ± SEM) T24” value (T24 (bladder cancer); IC50 HaCaT / IC50 T24, Resazurin) was 1.3 ± 0.0. The IC50 (T24 (bladder cancer); Resazurin assay, read-out: IC50 (mean ± SEM) T24) was 1.6 ± 0.5 µM, the “selectivity index (vs HaCaT; mean ± SEM) HT29” value (HT29 (colorectal cancer); IC50 HaCaT / IC50 HT29, Resazurin) was 0.4 ± 0.1 and the IC50 (HT29 (colorectal cancer); Resazurin assay, read-out: IC50 (mean ± SEM) HT29) was 4.9 ± 0.8 µM. The “selectivity index (vs HaCaT; mean ± SEM) Sk-OV-3” value (Sk-OV-3 (ovarian cancer)) was 0.5 ± 0.2, the IC50 ([2]; MTT assay) was 13.5 ± 2.7 µM and the “selectivity index (IC50 MRC-5 / IC50 A549)” value ([2]; mean of indices of each individual experiment, MTT) was 8.6 ± 3.9. For the same compound, the “selectivity index (vs HaCaT; mean ± SEM) MeWo” value (MeWo (melanoma; BRAF WT); IC50 HaCaT / IC50 MeWo, Resazurin) was 1.0 ± 0.1, the IC50 (MeWo (melanoma; BRAF WT); Resazurin assay, read-out: IC50 (mean ± SEM) MeWo) was 2.2 ± 1.1 µM and the “selectivity index (vs HaCaT; mean ± SEM) HepG2” value (HepG2 (hepatocarcinoma); IC50 HaCaT / IC50 HepG2, Resazurin) was 1.2 ± 0.2. The IC50 (HepG2 (hepatocarcinoma); Resazurin assay, read-out: IC50 (mean ± SEM) HepG2) was 1.8 ± 0.2 µM, the IC50 ([3]; read-out: IC50 (mean ± SEM) MRC-5 (normal)) was 99.2 ± 37 µM and the “selectivity index (vs HaCaT; mean ± SEM) Sk-Br-3” value ([7]; IC50 HaCaT / IC50 Sk-Br-3, Resazurin) was 0.5 ± 0.1. For the same compound, the IC50 ([7]; Resazurin assay, read-out: IC50 (mean ± SEM) Sk-Br-3) was 4.3 ± 0.9 µM, the IC50 [8] was 2.1 ± 0.7 µM and the “selectivity index (vs HaCaT; mean ± SEM) HNO97” value (HNO97 (tongue cancer); IC50 HaCaT / IC50 HNO97, Resazurin) was 0.8 ± 0.1. The IC50 (HNO97 (tongue cancer); Resazurin assay, read-out: IC50 (mean ± SEM) HNO97) was 2.5 ± 0.4 µM, the “selectivity index (vs HaCaT; mean ± SEM) A64-CLS” value ([9]; IC50 HaCaT / IC50 A64-CLS, Resazurin) was 0.5 ± 0.0 and the IC50 ([9]; Resazurin assay, read-out: IC50 (mean ± SEM) A64-CLS) was 4.5 ± 1.2 µM. For the same compound, the “selectivity index (vs HaCaT; mean ± SEM) PC-3” value (PC-3 (prostate cancer); IC50 HaCaT / IC50 PC-3, Resazurin) was 0.7 ± 0.2, the IC50 (PC-3 (prostate cancer); Resazurin assay, read-out: IC50 (mean ± SEM) PC-3) was 3.1 ± 0.2 µM and the “selectivity index (vs HaCaT; mean ± SEM) GAMG” value (GAMG (glioblastoma); IC50 HaCaT / IC50 GAMG, Resazurin) was 0.7 ± 0.0. For the same compound, the IC50 (GAMG (glioblastoma); Resazurin assay, read-out: IC50 (mean ± SEM) GAMG) was 3.2 ± 0.9 µM.
`C[C@@H](O[C@H]1O[C@@H]2CO[C@@H](c3ccccc3)O[C@@H]2[C@H](O)[C@H]1OCc1ccc(F)cc1)c1cc(C(F)(F)F)cc(C(F)(F)F)c1` [14α, (R)-{1-[3,5-Bis-(trifluoromethyl)phenyl]ethyl} (R)-(4,6-O-Benzylidene)-2-O-p-fluorobenzyl-α-D-galactopyranoside] was tested, and the “effect of antioxidants (N-acetylcysteine, catalase, MnTMPyP) on cytotoxicity” value (A549 cancer cells) was “None of these three antioxidants reduced the cytotoxicity” and the “glucose consumption and lactate production (glycolysis inhibition)” value (A549 cells [10]) was “did not reduce glucose consumption or lactate production”.
